Reference: patent US4771041A, “Method for combating virus infection” (priority 1976, dated 1988)

Columns and labels:
[1] = test system: cutaneous herpes type 1; conditions: trisodium salt in topical preparations according to examples 15, 16 and 17; preliminary experiments
[2] = test system: herpes simplex type 2 patient isolates; test: Herpes simplex type 2 plaque reduction assay on SIRC monolayers; assay type: cell-based; conditions: Human alphaherpesvirus 2
Procedure: The inhibition of influenza virus and herpes virus by phosphonoformic acid has been measured as plaque reaction according to the following procedures.
The plaque reduction assay for herpes simplex type 1 was performed on GMK (Green Monkey Kidney) cells as described by Ejereito et el., J. Gen. Virol. 2 (1968) 357. Monolayers on 5 cm petri dishes were used and after virus adsorption phosphonoformic acid was added in the medium.
I. Inhibition by phosphonoformic acid of herpes simplex type 2 plaque
The plaque reduction assay for herpes simplex type 2 was performed in the same way as in experiment H. The results are shown in Table 9.

[3] = test system: reverse transcriptase from RMuLV; test: Cell-free reverse transcriptase inhibition, RMuLV; assay type: biochemical, Rauscher murine leukemia virus; conditions: template/primer (rA)n.(dT)10
Procedure: (§1) Reverse transcriptase from various retroviruses have been tested in cell-free assays for inhibition by phosphonoformic acid and phosphonoacetic acid. The assay conditions have been described by Collaborative Research, Inc, 1365 Main Street, Waltham, Mass., USA "Assay kit for mammalian viral reverse transcriptase". BLV and VV were prepared in this laboratory and all other viruses and viral enzyme were obtained from Dr. K Nilsson, Department of Pathology, University of Uppsala and from Boehringer Mannheim, Germany. Phosphonoformic acid (PFA) and phosphonoacetic acid (PAA) were added at pH 7.2 to the reaction mixtures at the start of the reaction.
(§2) Rauscher murine leukemia virus; RMuLV, visna virus; VV, avian myeloblastosis virus; AMV, bovine leukemia virus; BLV, baboon endogenous virus; BaEV, simian sarcoma virus; SSV.

[4] = molecular target: T1, reverse transcriptase from VV (Maedi visna virus, UniProt P03370); test: Cell-free reverse transcriptase inhibition, VV; assay type: biochemical; conditions: template/primer (rA)n.(dT)10, read-out: Percent inhibition
T1 construct: Reverse transcriptase from various retroviruses have been tested in cell-free assays; made in house
Procedure: as §1, §2

[5] = test system: reverse transcriptase from AMV; test: Cell-free reverse transcriptase inhibition, AMV; assay type: biochemical, avian myeloblastosis virus
Procedure: as §1, §2

[6] = molecular target: T2, reverse transcriptase from BaEV (Baboon endogenous virus, UniProt P10272); test: Cell-free reverse transcriptase inhibition, BaEV; assay type: biochemical; conditions: template/primer (rA)n.(dT)10, read-out: Percent inhibition
T2 construct: Reverse transcriptase from various retroviruses have been tested in cell-free assays
Procedure: as §1, §2

[7] = guinea pig, in vivo
Procedure: Phosphonoformic acid and phosphonoacetic acid were used as their trisodium and disodium salts, respectively. The test substances were used in 1% solutions.
Guinea-pigs of the Dunkin-Hartley strain of both sexes and weighing 200-300 g were used. The back of the animal was shaved and depilated with Opilca® on the day before starting the application of the solutions. The back was divided into six squares in the middle of which 30 μl of the test solutions was applied. In a given group of animals the different solutions were applied in a randomized order alternating between sites. However, the same site was used for repeated application of a given solution.
The irritation was scored on scales of 0 to 3, each grade corresponding to the following specific criteria of irritation:
1=slight erythema or edema or no hair growth
2=moderate erythema or edema or skin discoloration
3=marked erythema or edema or necrosis including crust formation.
The scoring was carried out blindly using coded solutions.
The scores of all the applications for a given solution and time were added and the average score was calculated.
The solvent used was a mixture of glycerol 10.0% (w/v), Tween 80 0.1% and aq sterile ad 100. All solutions were adjusted to pH 6.5 with hydrochloric acid or aqueous sodium hydroxide as required. Thirty μl of 1.0% solutions of phosphonoformic acid and phosphonoacetic acid respectively was applied twice daily during three days to each of six guinea pigs.

[8] = set-up: species or system Cynomolgus monkeys; conditions: cynomolgus monkey, in vivo
Procedure: Phosphonoformic acid, also denoted PFA and phosphonoacetic acid, also denoted PAA were used in the form of their trisodium and disodium salt, respectively. The following equimolar compositions of the two test compounds were used: […]
Two adult male Cynomolgus monkeys were treated once daily for 7 days with PFA or PAA in Arlatone cream. Treatment was done both by topical application of 0.2 ml cream on an area of 3×7 cm on the upper part of the arms and by application of 0.2 ml of cream on the penis and the adjacent skin. During application of cream, the animals were lightly anaesthetized with Ketalar®, given intramuscularly. All applications were 0.2 ml each on day 6/3, 7/3, 8/3, 9/3, 10/3, 11/3 and 12/3 1978.

[9] = molecular target: T3, reverse transcriptase from SSV (Woolly monkey sarcoma virus, UniProt P03359); test: Cell-free reverse transcriptase inhibition, SSV; assay type: biochemical, simian sarcoma virus; conditions: template/primer (rA)n.(dT)10, read-out: Percent inhibition
T3 construct: Reverse transcriptase from various retroviruses have been tested in cell-free assays
Procedure: as §1, §2

T2 sequence (P10272 659-1335): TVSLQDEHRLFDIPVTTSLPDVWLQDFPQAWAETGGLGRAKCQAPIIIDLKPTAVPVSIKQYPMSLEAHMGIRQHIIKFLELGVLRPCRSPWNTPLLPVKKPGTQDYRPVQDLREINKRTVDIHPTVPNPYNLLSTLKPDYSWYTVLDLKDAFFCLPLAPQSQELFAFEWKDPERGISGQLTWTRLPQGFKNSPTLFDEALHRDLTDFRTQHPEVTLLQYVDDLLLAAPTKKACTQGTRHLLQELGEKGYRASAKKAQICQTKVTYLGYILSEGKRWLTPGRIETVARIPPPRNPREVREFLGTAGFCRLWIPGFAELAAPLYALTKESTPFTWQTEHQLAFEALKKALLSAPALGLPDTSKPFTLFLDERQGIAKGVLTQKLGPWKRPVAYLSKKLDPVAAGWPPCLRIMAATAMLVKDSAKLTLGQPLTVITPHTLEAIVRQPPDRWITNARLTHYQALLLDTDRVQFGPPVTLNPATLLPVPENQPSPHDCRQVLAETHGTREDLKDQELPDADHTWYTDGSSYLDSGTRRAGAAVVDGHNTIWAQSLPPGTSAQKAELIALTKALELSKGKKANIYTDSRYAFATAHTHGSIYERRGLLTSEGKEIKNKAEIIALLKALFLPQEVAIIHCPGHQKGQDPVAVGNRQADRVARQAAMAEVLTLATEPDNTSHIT
T3 sequence (P03359 642-1310): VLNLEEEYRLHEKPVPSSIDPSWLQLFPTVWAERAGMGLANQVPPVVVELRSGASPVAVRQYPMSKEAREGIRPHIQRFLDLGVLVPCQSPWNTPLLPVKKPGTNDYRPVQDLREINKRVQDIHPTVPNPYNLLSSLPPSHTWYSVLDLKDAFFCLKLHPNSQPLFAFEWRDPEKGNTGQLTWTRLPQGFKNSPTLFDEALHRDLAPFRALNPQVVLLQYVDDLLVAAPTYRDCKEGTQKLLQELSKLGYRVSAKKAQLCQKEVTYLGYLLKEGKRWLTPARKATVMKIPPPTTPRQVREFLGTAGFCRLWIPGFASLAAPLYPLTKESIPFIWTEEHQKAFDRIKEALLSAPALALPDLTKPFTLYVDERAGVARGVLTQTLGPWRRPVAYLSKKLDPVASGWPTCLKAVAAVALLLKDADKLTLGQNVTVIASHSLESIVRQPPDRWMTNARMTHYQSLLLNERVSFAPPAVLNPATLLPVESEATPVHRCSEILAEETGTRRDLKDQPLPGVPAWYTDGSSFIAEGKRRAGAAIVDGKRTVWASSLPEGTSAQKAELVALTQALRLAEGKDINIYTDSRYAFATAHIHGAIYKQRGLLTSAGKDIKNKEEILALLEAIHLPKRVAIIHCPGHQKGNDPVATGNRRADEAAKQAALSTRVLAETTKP
T1 sequence (P03370 541-1111): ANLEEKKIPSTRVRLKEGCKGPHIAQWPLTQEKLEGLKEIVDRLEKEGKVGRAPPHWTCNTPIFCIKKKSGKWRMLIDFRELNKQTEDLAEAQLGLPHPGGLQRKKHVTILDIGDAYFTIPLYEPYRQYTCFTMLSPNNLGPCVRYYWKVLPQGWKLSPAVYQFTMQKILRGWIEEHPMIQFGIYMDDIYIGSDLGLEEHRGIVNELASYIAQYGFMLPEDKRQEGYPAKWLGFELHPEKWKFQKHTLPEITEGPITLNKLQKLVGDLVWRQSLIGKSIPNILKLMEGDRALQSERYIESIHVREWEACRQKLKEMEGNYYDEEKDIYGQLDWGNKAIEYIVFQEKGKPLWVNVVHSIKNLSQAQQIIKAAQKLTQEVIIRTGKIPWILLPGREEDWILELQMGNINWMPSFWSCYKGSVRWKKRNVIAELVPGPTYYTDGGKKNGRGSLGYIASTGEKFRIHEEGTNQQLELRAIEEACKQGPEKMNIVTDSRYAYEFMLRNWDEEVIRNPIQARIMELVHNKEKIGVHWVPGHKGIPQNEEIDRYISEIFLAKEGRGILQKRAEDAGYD

O=C(O)P(=O)(O)O [phosphonoformic acid]
therapeutic effect [1]: has a therapeutic effect | inhibition at 500 µM [2]: 99.9% | Percent inhibition ([3]; 10 μM): 90% | Percent inhibition ([3]; 100 μM): 96% | Percent inhibition ([3]; 500 μM): > 99% | inhibition at 100 µM ([4]; 100 μM): 95% | inhibition at 500 µM ([4]; 500 μM): 99% | Percent inhibition ([5]; 10 μM, endogenous template): 15% | Percent inhibition ([5]; 10 μM, purified enzyme, (rA)n.(dT)10): 45% | Percent inhibition ([5]; 10 μM, template/primer (rA)n.(dT)10): 43% | Percent inhibition ([5]; 100 μM, endogenous template): 49% | Percent inhibition ([5]; 100 μM, purified enzyme, (rA)n.(dT)10): 96% | Percent inhibition ([5]; 100 μM, template/primer (rA)n.(dT)10): 94% | Percent inhibition ([5]; 500 μM, endogenous template): 70% | Percent inhibition ([5]; 500 μM, purified enzyme, (rA)n.(dT)10): > 99% | Percent inhibition ([5]; 500 μM, template/primer (rA)n.(dT)10): 99% | inhibition at 10 µM ([6]; 10 μM): 96% | inhibition at 100 µM ([6]; 100 μM): > 99% | inhibition at 500 µM ([6]; 500 μM): > 99% | skin condition after two weeks [7]: the skin is normal with hair after two weeks | Result (skin irritation), area of application penis [8]: No symptoms | Result (skin irritation), area of application upper arm [8]: No symptoms | inhibition at 10 µM ([9]; 10 μM): 92% | inhibition at 100 µM ([9]; 100 μM): > 99% | inhibition at 500 µM ([9]; 500 μM): > 99%
